Measurements published in the supplement of paper PMC13380429.

Experiments:
Details in all cases: 72 h
[1] = system: HepG2; assay: drug sensitivity score (DSS) for viability; higher = more toxic; extreme values may be limits of the assay
[2] = system: Calu-3; assay: as above
[3] = system: Vero E6; assay: as above
[4] = system: U2OS; assay: as above
[5] = system: Caco-2; assay: as above
[6] = system: HepG2; assay: cell viability relative to DMSO; higher = less toxic
[7] = system: Calu-3; assay: as above
[8] = system: Vero E6; assay: as above
[9] = system: U2OS; assay: as above
[10] = system: Caco-2; assay: as above
[11] = system: HepG2; assay: relative viability EC50 (midpoint between 100% and the lowest measured viability); higher = less toxic
[12] = system: Calu-3; assay: as above
[13] = system: Vero E6; assay: as above
[14] = system: U2OS; assay: as above
[15] = system: Caco-2; assay: as above

Structure (SMILES)	drug sensitivity score [1]	drug sensitivity score [2]	drug sensitivity score [3]	drug sensitivity score [4]	drug sensitivity score [5]	cell viability ([6]; 1 nM) [%]	cell viability ([6]; 10 nM) [%]	cell viability ([6]; 100 nM) [%]	cell viability ([6]; 1000 nM) [%]	cell viability ([6]; 10000 nM) [%]	cell viability ([7]; 1 nM) [%]	cell viability ([7]; 10 nM) [%]	cell viability ([7]; 100 nM) [%]	cell viability ([7]; 1000 nM) [%]	cell viability ([7]; 10000 nM) [%]	cell viability ([8]; 1 nM) [%]	cell viability ([8]; 10 nM) [%]	cell viability ([8]; 100 nM) [%]	cell viability ([8]; 1000 nM) [%]	cell viability ([8]; 10000 nM) [%]	cell viability ([9]; 1 nM) [%]	cell viability ([9]; 10 nM) [%]	cell viability ([9]; 100 nM) [%]	cell viability ([9]; 1000 nM) [%]	cell viability ([9]; 10000 nM) [%]	cell viability ([10]; 1 nM) [%]	cell viability ([10]; 10 nM) [%]	cell viability ([10]; 100 nM) [%]	cell viability ([10]; 1000 nM) [%]	cell viability ([10]; 10000 nM) [%]	relative viability EC50 [11] [µM]	relative viability EC50 [12] [µM]	relative viability EC50 [13] [µM]	relative viability EC50 [14] [µM]	relative viability EC50 [15] [µM]
CCOC(=O)COc1ccc2c(=O)cc(-c3ccccc3)oc2c1 [efloxate]	0	3	0	0	0	97.9	100	98.3	99.2	99.3	105	98.9	85.8	83.5	99.1	97	100	91.9	101	106	95.4	95.5	98.7	96.7	99.2	93	88.6	101	101	96.1	> 10	> 10	> 10	> 10	> 10
COC(=O)N[C@H](C(=O)N1CCC[C@H]1c1nc(-c2ccc3c(c2)O[C@@H](c2ccccc2)n2c-3cc3cc(-c4c[nH]c([C@@H]5CCCN5C(=O)[C@@H](NC(=O)OC)C(C)C)n4)ccc32)c[nH]1)C(C)C [elbasvir]	0	0	0	0	0	110	88.7	108	104	96.8	99.9	106	95.8	107	102	105	98.5	95.3	95.5	107	90.3	100	98.2	97.8	99.7	85	103	93.1	96.1	101	> 10	> 10	> 10	> 10	> 10
O=c1oc2c(O)c(O)cc3c(=O)oc4c(O)c(O)cc1c4c23 [ellagic-acid]	0	0	0	0	0	93.6	97	97.5	96.4	91.9	98.4	95.9	99.4	100	93.2	99.1	106	100	105	107	99.3	99.6	103	100	105	104	95.8	104	98.5	96.6	> 10	> 10	> 10	> 10	> 10
